In ChEMBL document CHEMBL3526094, “Methadone N-demethylation by the common CYP2B6 allelic variant CYP2B6.6” (Drug Metab Dispos, 2013):

Legend:
Type in all cases: ADME
Details in all cases: human, recombinant enzyme
[1] = Drug metabolism assessed as recombinant CYP2B6.1 (unknown origin) expressed in insect cell microsomes-mediated R-2-ethyl-1,5-dimethyl-3,3-diphenylpyrrolidine formation at 0.25 to 2 uM after 10 mins high-pressure liquid chromatography analysis
[2] = Drug metabolism assessed as recombinant CYP2B6.1 (unknown origin) expressed in insect cell microsomes-mediated S-2-ethyl-1,5-dimethyl-3,3-diphenylpyrrolidine formation at 0.25 to 2 uM after 10 mins high-pressure liquid chromatography analysis
[3] = Drug metabolism assessed as recombinant CYP2B6.6 (unknown origin) expressed in insect cell microsomes-mediated R-2-ethyl-1,5-dimethyl-3,3-diphenylpyrrolidine formation at 0.25 to 2 uM after 10 mins high-pressure liquid chromatography analysis
[4] = Drug metabolism assessed as recombinant CYP2B6.6 (unknown origin) expressed in insect cell microsomes-mediated S-2-ethyl-1,5-dimethyl-3,3-diphenylpyrrolidine formation at 0.25 to 2 uM after 10 mins high-pressure liquid chromatography analysis

## CCC(=O)C(CC(C)N(C)C)(c1ccccc1)c1ccccc1 (racemic) [METHADONE]
[1]
  Ks: 40 µM
[2]
  Ks: 13 µM
[3]
  Ks: 57 µM
[4]
  Ks: 20 µM

## CCC(=O)C(CC(C)N(C)C)(c1ccccc1)c1ccccc1 (stereo in doubt) [METHADONE]
[1]
  Ks: 75 µM
[2]
  Ks: 25 µM
[3]
  Ks: 97 µM
[4]
  Ks: 40 µM
